Laboratory results published in patent EP0100158A2, “(3-pyridinyl)heteroalkarylalkanols, alkanoic acids and esters” (THE UPJOHN COMPANY, priority 1982, dated 1984).

Target: T1, TXA2 synthetase (Homo sapiens, UniProt P24557)
T1 construct: generated by mixing prostaglandin H2 (PGH2) with human platelet microsomes (HPM); from tissue; host or cells: human platelet microsomes
T1 sequence (P24557 1-533): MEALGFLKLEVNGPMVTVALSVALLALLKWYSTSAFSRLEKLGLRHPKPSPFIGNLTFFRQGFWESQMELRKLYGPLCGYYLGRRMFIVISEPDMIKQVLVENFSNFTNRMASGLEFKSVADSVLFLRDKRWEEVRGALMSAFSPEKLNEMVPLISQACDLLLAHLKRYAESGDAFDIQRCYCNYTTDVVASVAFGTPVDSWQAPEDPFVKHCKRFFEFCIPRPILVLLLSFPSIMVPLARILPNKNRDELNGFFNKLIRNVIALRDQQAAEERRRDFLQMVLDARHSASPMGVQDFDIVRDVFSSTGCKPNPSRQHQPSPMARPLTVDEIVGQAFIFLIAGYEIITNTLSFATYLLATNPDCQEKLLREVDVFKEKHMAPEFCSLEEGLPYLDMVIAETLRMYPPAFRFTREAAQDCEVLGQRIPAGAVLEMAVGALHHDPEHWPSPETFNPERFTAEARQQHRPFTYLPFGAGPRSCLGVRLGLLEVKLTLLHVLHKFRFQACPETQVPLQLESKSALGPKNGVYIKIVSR
Assay: TXA2 inhibition test: TXA2 generated from PGH2 with human platelet microsomes, response measured on superfused rabbit aortic strips
Type: biochemical
Details: inhibition of TXA2 formation; test compound added to human platelet microsomes 5 minutes before mixing with PGH2; rabbit aorta readout; read-out: approximate ED50's (converted)
Description: The compounds of the present invention were tested for TXAz inhibition as follows: • Rabbit aortic strips were superfused in series with Krebs solution. Thromboxane Az (TXA2) was generated by mixing prostaglandin H2 (PGH2) with human platelet microsomes (HPM).
Potential inhibitors were tested by comparing the response of the rabbit aorta to the amount of TXAz produced by mixing PGH2 and HPM without the test compound in the reaction medium and then the amount of TXAz produced when the test compound was added to the HPM 5 minutes before the HPM was mixed with PGH2.

IC50: ~37.6 nM
SMILES: O=C(O)c1cc(CNc2cccnc2)ccc1O
